Values of other authors, collected in paper PMC3005221 (Biochemistry, 2010).

Biological target: HDAC6 BUZ domain
Details: read-out: KD for HDAC6 BUZ domain (reported); full-length ubiquitin

Substance: ubiquitin
- Kd: 0.06 µM
